Patent US20070203215A1, “Methods & Compositions For Enhancing Pharmaceutical Treatments” (Taiji Biomedical, Inc., priority 1999, published 2007)
Read-outs that look alike come from different tables or passages of the source.

What was measured:
Assay in all cases: Reversal of MDR in P-gp-expressing cell line
Format in all cases: cell-based
CEM/VLB1000 = settings: Homo sapiens, CEM/VLB1000 lymphoma, ± SD
Experimental: (§1) Cell proliferation IC50s and MDR reversal EC50s were determined from 3-day dose-response curves carried out in triplicate in 96-well plates essentially as described by Monks et al. (J. Natl. Cancer Inst., 83:757-66, 1991). Cells were plated in standard growth medium at 2.5 or 5.0×10^4 per well (CCRF-CEM and CEM/VLB1000 respectively) or 5×10^3 per well (all other cell lines) in a final volume of 100 μl. After a 2 h incubation for non-adherent cells and overnight incubation for adherent cells, the initial cell density was determined by fluorescence readout of Alamar Blue metabolism. The compound of Formula 2, cytotoxic agents, or compound vehicles were added to duplicate plates and the incubation was continued for an additional 72 h. Final cell density was determined with Alamar Blue. In some experiments, a standard endpoint assay was used without analysis of initial cell density with Alamar Blue. Similar results were obtained with the two assays. EC50s were derived by nonlinear regression analysis assuming a sigmoidal dose-response using GraphPad Prism Software (San Diego, Calif.). Proliferation assays capable of measuring both cytostatic and cytotoxic responses were carried out as described herein with 15 non-transformed and transformed cell lines, including primary fibroblasts, non-transformed smooth muscle, leukemia, breast, colon, ovarian and uterine carcinoma cells (±P-gp expression). Although the compound of Formula 2 reversed P-gp-mediated MDR in the low nanomolar concentration range, the compound was non-cytotoxic by itself at doses up to 100 μM in all cell lines. […] IC50s for non-specific cytotoxicity were similar in matched cell lines plus and minus P-gp expression. […] If it were, some consistent degree of resistance would be expected in P-gp expressing cells.

HCT-15 = settings: Homo sapiens; HCT-15 colorectal carcinoma; read-out: Formula 2 compound EC50, reversal of Paclitaxel resistance
Experimental: as §1

MCF-7/ADR = settings: Homo sapiens, NCI/ADR-RES, MCF-7/ADR breast, ± SD
Experimental: as §1

MES-SA/DX5 = settings: Homo sapiens, MES-SA/DX5 uterine, ± SD
Experimental: as §1

SK/VLB1000 = settings: Homo sapiens, SK/VLB1000 ovarian
Experimental: as §1

[1] = read-out: Formula 2 compound EC50, reversal of Doxorubicin resistance
[2] = read-out: Formula 2 compound EC50, reversal of Vinblastine resistance
[3] = read-out: Formula 2 compound EC50, reversal of Paclitaxel resistance

In the case of CCOC/C=C/c1ccc(-c2nc(-c3ccc(NC(C)C)cc3)c(-c3ccc(NC(C)C)cc3)[nH]2)cc1 [Formula 2 compound], the EC50 (CEM/VLB1000; [1]) is reported as 90 ± 60 nM, the EC50 (CEM/VLB1000; [2]) is reported as 70 ± 10 nM and the EC50 (HCT-15) is reported as 1.6 nM. The EC50 (MCF-7/ADR; [1]) was 38 ± 6 nM, the EC50 (MCF-7/ADR; [3]) was 31 ± 4 nM and the EC50 (MCF-7/ADR; [2]) was 20 ± 10 nM. For the same molecule, the EC50 (MES-SA/DX5; [1]) was 24 ± 6 nM, the EC50 (MES-SA/DX5; [3]) was 27 ± 7 nM and the EC50 (MES-SA/DX5; [2]) was 34 ± 7 nM. The EC50 (SK/VLB1000; [3]) was 33 nM, the EC50 (SK/VLB1000; [2]) was 15 nM and the EC50 (SK/VLB1000; ± SD, read-out: Formula 2 compound EC50, reversal of Doxorubicin resistance) was 25 ± 8 nM.
